# Experimental data: PubChem BioAssay AID330 (DTP/NCI, 2004)
# Values joined by “and” are separate entries in the source; they are usually repeats but may differ in a detail not shown here. Equal entries are not always repeated. Toxic doses and inconclusive results are not listed.
# System: P388 leukemia ip, CD2F1 mice, survival T/C
# Assay: NCI In Vivo Anticancer Drug Screen. Data for tumor model P388 Leukemia (intraperitoneal) in CD2F1 (CDF1) mice
# Details: endpoint: median survival time, higher = longer survival
# Method in brief: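 Mice carrying the transplanted tumor received test compound or vehicle. Survival was recorded in each group, and the value is the treated-group measurement divided by that of the vehicle-treated control group.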
# [1] = dose: 25.0 mg/kg/injection, schedule: Q01DX009 (ip), vehicle: saline
# [2] = dose: 50.0 mg/kg/injection, schedule: Q01DX009 (ip), vehicle: saline
# [3] = dose: 100.0 mg/kg/injection, schedule: Q01DX009 (ip), vehicle: saline
# [4] = dose: 200.0 mg/kg/injection, schedule: Q01DX009 (ip), vehicle: saline
# [5] = dose: 100.0 mg/kg/injection, schedule: Q04DX003 (ip), vehicle: Klucel (hydroxypropylcellulose) (HPC)
# [6] = dose: 200.0 mg/kg/injection, schedule: Q04DX003 (ip), vehicle: Klucel (hydroxypropylcellulose) (HPC)
# [7] = dose: 400.0 mg/kg/injection, schedule: Q04DX003 (ip), vehicle: Klucel (hydroxypropylcellulose) (HPC)
# [8] = dose: 50.0 mg/kg/injection, schedule: Q01DX005 (ip), vehicle: saline
# [9] = dose: 100.0 mg/kg/injection, schedule: Q01DX005 (ip), vehicle: saline
# [10] = dose: 200.0 mg/kg/injection, schedule: Q01DX005 (ip), vehicle: saline
# [11] = dose: 50.0 mg/kg/injection, schedule: Q01DX005 (ip), vehicle: saline with Tween-80
# [12] = dose: 100.0 mg/kg/injection, schedule: Q01DX005 (ip), vehicle: saline with Tween-80
# [13] = dose: 200.0 mg/kg/injection, schedule: Q01DX005 (ip), vehicle: saline with Tween-80
smiles,measurement,setting,value
Cc1ccc(NCCNCCO)c2c1C(=O)c1ccccc1C2=O,T/C,[1],100 % of control and 87 % of control
same,T/C,[2],99 % of control and 89 % of control
same,T/C,"dose: 50.0 mg/kg/injection, schedule: Q01DX009 (ip), vehicle: suspension in saline",116 % of control
same,T/C,[3],101 % of control and 90 % of control
same,T/C,"dose: 100.0 mg/kg/injection, schedule: Q01DX009 (ip), vehicle: suspension in saline",122 % of control
same,T/C,[4],87 % of control and 95 % of control
same,T/C,"dose: 200.0 mg/kg/injection, schedule: Q01DX009 (ip), vehicle: suspension in saline",151 % of control
O=C1COCC(=O)OCCOCCSCCOCCO1,T/C,[5],102 % of control
same,T/C,[6],102 % of control
same,T/C,[7],100 % of control
Cc1n[nH]c(=O)n2c1nc1ccccc12,T/C,"dose: 60.0 mg/kg/injection, schedule: Q01DX005 (ip), vehicle: Klucel (hydroxypropylcellulose) (HPC)",95 % of control
same,T/C,"dose: 120.0 mg/kg/injection, schedule: Q01DX005 (ip), vehicle: Klucel (hydroxypropylcellulose) (HPC)",95 % of control
same,T/C,"dose: 240.0 mg/kg/injection, schedule: Q01DX005 (ip), vehicle: Klucel (hydroxypropylcellulose) (HPC)",92 % of control
O=C(O)c1cc(Cl)nnc1Cl,T/C,[8],109 % of control
same,T/C,[9],100 % of control
same,T/C,[10],104 % of control
C=C(CC(O)c1ccccc1)C(=O)Nc1ccccc1OC (stereo not drawn),T/C,[8],98 % of control
same,T/C,[9],103 % of control
same,T/C,[10],100 % of control
CC1CCCC(C2CCCCCCC2O)N1 (stereo not drawn),T/C,[8],100 % of control
same,T/C,[9],92 % of control
same,T/C,[10],97 % of control
CS(=O)(=O)OCC1NC(=O)C(COS(C)(=O)=O)NC1=O (stereo not drawn),T/C,"dose: 50.0 mg/kg/injection, schedule: Q01DX009 (ip), vehicle: other",106 % of control and 103 % of control
same,T/C,"dose: 100.0 mg/kg/injection, schedule: Q01DX009 (ip), vehicle: other",98 % of control and 103 % of control
same,T/C,"dose: 200.0 mg/kg/injection, schedule: Q01DX009 (ip), vehicle: other",107 % of control
same,T/C,"dose: 400.0 mg/kg/injection, schedule: Q01DX009 (ip), vehicle: other",103 % of control
Cc1ccccc1SSc1ccccc1C,T/C,"dose: 50.0 mg/kg/injection, schedule: Q01DX009 (ip), vehicle: saline with Tween-80",113 % of control
c1ccc(-c2nc3cc4ccccc4cc3nc2-c2ccccc2)cc1,T/C,"dose: 50.0 mg/kg/injection, schedule: Q01DX005 (ip), vehicle: Klucel (hydroxypropylcellulose) (HPC)",105 % of control
same,T/C,"dose: 100.0 mg/kg/injection, schedule: Q01DX005 (ip), vehicle: Klucel (hydroxypropylcellulose) (HPC)",100 % of control
same,T/C,"dose: 200.0 mg/kg/injection, schedule: Q01DX005 (ip), vehicle: Klucel (hydroxypropylcellulose) (HPC)",99 % of control
Cc1cccc(NC(=O)NC2CCCCC2)c1,T/C,[2],103 % of control
same,T/C,[3],102 % of control
same,T/C,[4],93 % of control
C=C1C(=O)C23C(OC(=O)/C=C/C)C1CCC2C12COC3(O)C(O)C1C(C)(C)CCC2O (stereo not drawn),T/C,"dose: 3.75 mg/kg/injection, schedule: Q01DX009 (ip), vehicle: saline with Tween-80",103 % of control
same,T/C,"dose: 7.5 mg/kg/injection, schedule: Q01DX009 (ip), vehicle: saline with Tween-80",108 % of control
same,T/C,"dose: 15.0 mg/kg/injection, schedule: Q01DX009 (ip), vehicle: saline with Tween-80",112 % of control
C=CC=O,T/C,"dose: 0.44 mg/kg/injection, schedule: Q01DX009 (ip), vehicle: saline",109 % of control
same,T/C,"dose: 0.88 mg/kg/injection, schedule: Q01DX009 (ip), vehicle: saline",109 % of control
same,T/C,"dose: 1.56 mg/kg/injection, schedule: Q01DX009 (ip), vehicle: saline",109 % of control
Nc1nc(N)c2nn(C3OC(CO)C(O)C3O)nc2n1 (stereo not drawn),T/C,"dose: 25.0 mg/kg/injection, schedule: Q01DX001 (ip), vehicle: saline",103 % of control
same,T/C,"dose: 50.0 mg/kg/injection, schedule: Q01DX001 (ip), vehicle: saline",94 % of control
same,T/C,"dose: 100.0 mg/kg/injection, schedule: Q01DX001 (ip), vehicle: saline",105 % of control
same,T/C,"dose: 200.0 mg/kg/injection, schedule: Q01DX001 (ip), vehicle: saline",100 % of control
same,T/C,"dose: 400.0 mg/kg/injection, schedule: Q01DX001 (ip), vehicle: saline",100 % of control
C(=C\c1ccccc1)/C[P+](c1ccccc1)(c1ccccc1)c1ccccc1,T/C,"dose: 0.62 mg/kg/injection, schedule: Q01DX009 (ip), vehicle: saline",90 % of control
same,T/C,"dose: 0.63 mg/kg/injection, schedule: Q01DX009 (ip), vehicle: saline with Tween-80",100 % of control
same,T/C,"dose: 1.25 mg/kg/injection, schedule: Q01DX009 (ip), vehicle: saline with Tween-80",122 % of control
same,T/C,"dose: 1.25 mg/kg/injection, schedule: Q01DX009 (ip), vehicle: saline",93 % of control
same,T/C,"dose: 2.5 mg/kg/injection, schedule: Q01DX009 (ip), vehicle: saline with Tween-80",109 % of control
same,T/C,"dose: 2.5 mg/kg/injection, schedule: Q01DX009 (ip), vehicle: saline",90 % of control
same,T/C,"dose: 5.0 mg/kg/injection, schedule: Q01DX009 (ip), vehicle: saline",98 % of control
C=C(C#N)C1OC2OC(C)(C)OC2C1OC (stereo not drawn),T/C,[11],107 % of control
same,T/C,[12],118 % of control
Cc1cc(Cl)nn2cc(CC(=O)O)nc12,T/C,"dose: 100.0 mg/kg/injection, schedule: Q01DX001 (ip), vehicle: Klucel (hydroxypropylcellulose) (HPC)",100 % of control
same,T/C,"dose: 200.0 mg/kg/injection, schedule: Q01DX001 (ip), vehicle: Klucel (hydroxypropylcellulose) (HPC)",104 % of control
same,T/C,"dose: 400.0 mg/kg/injection, schedule: Q01DX001 (ip), vehicle: Klucel (hydroxypropylcellulose) (HPC)",98 % of control
CCn1c2ccc(N)cc2c2c3ncc4cccn4c3ccc21,T/C,"dose: 60.0 mg/kg/injection, schedule: Q01DX005 (ip), vehicle: saline with Tween-80",88 % of control
same,T/C,"dose: 120.0 mg/kg/injection, schedule: Q01DX005 (ip), vehicle: saline with Tween-80",87 % of control
Cc1cc(O)c([N+](=O)[O-])c(O)c1,T/C,[2],96 % of control
same,T/C,[3],103 % of control
same,T/C,[4],100 % of control
CC(C)CNCC(=O)Nc1ccc(Cc2ccc(NC(=O)CNCC(C)C)cc2)cc1,T/C,[11],102 % of control
same,T/C,[12],97 % of control
CC(=O)OC(C(=O)CBr)C(OC(C)=O)C(OC(C)=O)C(=O)CBr (stereo not drawn),T/C,"dose: 12.5 mg/kg/injection, schedule: Q01DX009 (ip), vehicle: Klucel (hydroxypropylcellulose) (HPC)",114 % of control
same,T/C,"dose: 25.0 mg/kg/injection, schedule: Q01DX009 (ip), vehicle: Klucel (hydroxypropylcellulose) (HPC)",96 % of control
CN(C)C(C#C[Si](C)(C)C)CO (stereo not drawn),T/C,"dose: 100.0 mg/kg/injection, schedule: Q04DX003 (ip), vehicle: saline",104 % of control
same,T/C,"dose: 200.0 mg/kg/injection, schedule: Q04DX003 (ip), vehicle: saline",100 % of control
same,T/C,"dose: 400.0 mg/kg/injection, schedule: Q04DX003 (ip), vehicle: saline",97 % of control
Cc1c2oc3c(C)c([N+](=O)[O-])cc(C(=O)NC4C(=O)NC(C(C)C)C(=O)N5CCCC5C(=O)N(C)CC(=O)N(C)C(C(C)C)C(=O)OC4C)c3nc-2c(C(=O)NC2C(=O)NC(C(C)C)C(=O)N3CCCC3C(=O)N(C)CC(=O)N(C)C(C(C)C)C(=O)OC2C)c(N)c1=O (stereo not drawn),T/C,"dose: 0.01 mg/kg/injection, schedule: Q01DX009 (ip), vehicle: Klucel (hydroxypropylcellulose) (HPC)",90 % of control
same,T/C,"dose: 0.02 mg/kg/injection, schedule: Q01DX009 (ip), vehicle: Klucel (hydroxypropylcellulose) (HPC)",106 % of control
same,T/C,"dose: 0.04 mg/kg/injection, schedule: Q01DX009 (ip), vehicle: Klucel (hydroxypropylcellulose) (HPC)",108 % of control
same,T/C,"dose: 0.08 mg/kg/injection, schedule: Q01DX009 (ip), vehicle: Klucel (hydroxypropylcellulose) (HPC)",120 % of control and 217 % of control
same,T/C,"dose: 0.3 mg/kg/injection, schedule: Q01DX009 (ip), vehicle: Klucel (hydroxypropylcellulose) (HPC)",218 % of control
O=[N+]([O-])c1c(Sc2ncccn2)ncnc1Sc1ncccn1,T/C,"dose: 3.12 mg/kg/injection, schedule: Q01DX009 (ip), vehicle: saline with Tween-80",105 % of control
same,T/C,"dose: 6.25 mg/kg/injection, schedule: Q01DX009 (ip), vehicle: saline with Tween-80",115 % of control
same,T/C,"dose: 12.5 mg/kg/injection, schedule: Q01DX009 (ip), vehicle: saline with Tween-80",113 % of control
same,T/C,"dose: 12.5 mg/kg/injection, schedule: Q01DX009 (ip), vehicle: saline",114 % of control
same,T/C,[1],114 % of control
same,T/C,[2],108 % of control
Cc1ccnc(NS(=O)(=O)c2ccc(Nc3c4ccccc4nc4cc(Cl)ccc34)cc2)n1,T/C,[5],104 % of control and 114 % of control
same,T/C,[6],106 % of control and 118 % of control
same,T/C,[7],124 % of control
CCOC(=O)c1cc(Br)c(=O)n(C)c1,T/C,[11],96 % of control
same,T/C,[12],95 % of control
same,T/C,[13],89 % of control
CC(=O)Nc1cccc2c1CCCC2,T/C,[11],100 % of control
same,T/C,[12],102 % of control
same,T/C,[13],102 % of control
